Data from publication PMC9105583, “Stereoselective Synthesis and Anticancer Activity of 2,6-Disubstituted trans-3-Methylidenetetrahydropyran-4-ones” (Materials, 2022).
Like-named read-outs stand apart in the source and are kept apart here.

Key:
[1] = system: cleaved PARP in HL-60 cells; experiment: Cleaved PARP (Asp214) detection, flow cytometry; type: cell-based, human; conditions: compound at 2IC50 concentration, 24 h; control 0.7 ± 0.13%
Protocol: (§1) Analysis of apoptosis, DNA damage and cell cycle
(§2) Apoptosis, DNA damage, proliferation and cell cycle kinetics were investigated using the Apoptosis, DNA Damage and Cell Proliferation Kit (BD Biosciences, San Jose, CA, USA) according to the manufacturer’s protocol. Briefly, HL-60 cells (2.0 × 10^5 cells/mL) were seeded in 6-well plates and left to grow for 24 h. Then, the cells were treated with 13d or 13g at IC50 and 2IC50 concentrations. After 24 h incubation, the cells were treated with BrdU solution for 8 h. Then, the cells were collected by centrifugation, fixed and permeabilized. To expose the incorporated BrdU, the cells were incubated with DNase (300 µg/mL in PBS) for 1 h at 37 °C. Afterwards, the cells were stained with fluorescent antibodies, including Anti-BrdU, Anti-Cleaved PARP (Asp214) and Anti-H2AX (pS139) for 20 min at room temperature. Total DNA for cell cycle analysis was stained using DAPI solution (1 µg/mL in staining buffer). Finally, the cells were analyzed by flow cytometry using CytoFLEX (Beckman Coulter, Inc., Brea, CA, USA) and the data analysis was performed with Kaluza Analysis Software v2 (Beckam Coulter, Inc., Brea, CA. USA).
Another hallmark of apoptosis is cleavage of poly(ADP-ribose) polymerase 1 (PARP1) into 24 kDa and 89 kDa fragments executed by caspases 3 and 7. […]

[2] = system: HL-60 cells; experiment: Annexin V / propidium iodide apoptosis assay, flow cytometry; type: cell-based, human; conditions: for early apoptotic cells (Annexin V-positive and PI-negative) / late apoptotic cells (Annexin V-positive and PI-positive): compound at 2IC50, 24 h; for early apoptotic cells (Annexin V-positive and PI-negative): control 3.3 ± 0.36%; for late apoptotic cells (Annexin V-positive and PI-positive): control 5.5 ± 1.02%; for change in the number of apoptotic cells: compound at IC50, 24 h
Protocol: Apoptotic cells were detected using FITC Annexin V Apoptosis Detection Kit I (BD Biosciences, San Jose, CA, USA). HL-60 cells (2.0 × 10^5 cells/mL) seeded in 6-well plates and cultured overnight were treated with various concentrations of 13d or 13g for 24 h. Then, the cells were washed with PBS and resuspended in the binding buffer. After staining with FITC Annexin V and propidium iodide (15 min, room temperature) cells were analyzed by flow cytometry using CytoFlex and Kaluza Analysis Software v2 (Beckman Coulter Inc., Brea, CA, USA).
One of the typical features of apoptotic cell death is translocation of phosphatidylserine from the inside surface to the extracellular surface of the cell membrane, which can be detected with Annexin V [27]. Therefore, to examine the ability of the investigated compounds to induce apoptosis in HL-60 cells, we performed Annexin V and propidium iodide (PI) staining (Figure 5C and Figure 6C). In the control group, 90.3 ± 1.15% of HL-60 cells were healthy, 3.3 ± 0.36% were in early stage of apoptosis (Annexin V-positive and PI-negative) and 5.5 ± 1.02% were in late-stage apoptosis (Annaxin V-positive and PI-positive).

[3] = system: MCF-7 cells; experiment: MTT assay, metabolic activity (cytotoxicity); type: cell-based, human; conditions: Homo sapiens, MCF7, 48 h incubation, mean ± SEM
Protocol: (§3) Metabolic activity by MTT assay
(§4) The MTT (3-([…])-2,5-diphenyl tetrazolium bromide) assay was performed to assess the cytotoxicity of the investigated compounds. Briefly, HL-60, MCF-7 and HUVEC cells were seeded in 24-well plates at density of 8 × 10^4/mL. After 24 h incubation, cells were treated with various concentrations of the compounds and incubated for another 24 h or 48 h. Then, the cells were incubated with MTT solution (100 µL; 5 mg/mL in PBS) for 1.5 h and centrifuged. The formazan product was dissolved in DMSO, and the absorption was measured using FlexStation 3 Multi-Mode Microplate Reader (Molecular Devices, LLC, San Jose, CA, USA) at 560 nm. Assays were performed twice in triplicate for each analog.
(§5) The cytotoxic activity of the obtained methylidenetetrahydropyran-4-ones was investigated in two cancer cell lines, human promyelocytic leukemia (HL-60) and breast cancer adenocarcinoma (MCF-7), and in healthy umbilical vein endothelial cells (HUVEC), for comparison. An anticancer drug, carboplatin, was used as a reference compound. Metabolic activity of the cells was assessed after 48 h incubation with various concentrations of the analogs (Table 6). Purity of all final compounds was determined on the basis of their ^1H NMR spectra (signal-to-noise ratio and presence of unidentified signals) and was at least 98%, in most cases even over 99%.

[4] = system: HL-60 cells; experiment: MTT assay, metabolic activity (cytotoxicity); type: cell-based, human; conditions: for IC50: MTT
Protocol: as §3, §4, §5

[5] = biological target: T1, human topoisomerase IIα (Homo sapiens, UniProt P11388); experiment: Human Topoisomerase II Decatenation Assay (kDNA); type: biochemical; conditions: for inhibition of topoisomerase II activity: 0.5 mM and 1 mM concentrations, 30 min at 37 °C
T1 construct: purchased Inspiralis, Norwich, UK
Protocol: Topoisomerase IIα activity
Topoisomerase IIα activity inhibition was assessed using the Human Topoisomerase II Decatenation Assay (Inspiralis, Norwich, UK). Briefly, kDNA was incubated with ATP, assay buffer (50 mM Tris-HCl pH 7.5, 125 mM NaCl, 10 mM MgCl2, 5 mM DTT, 100 µg/mL albumin), human topoisomerase II enzyme and various concentrations of the investigated compounds for 30 min at 37 °C. The reaction was stopped by addition of STEB (40% (w/v) sucrose, 100 mM Tris-HCl pH 8, 1 mM EDTA, 0.5 mg/mL bromophenol blue) followed by DNA extraction with chloroform/iso-amyl alcohol mixture (24:1). The samples were loaded onto a 1% agarose gel and run in a TBE buffer at 85 V for 65 min. Gels were stained with ethidium bromide (1 µg/mL) for 15 min, destained in water and visualized with a transilluminator (ChemiDoc MP Imaging System, Bio-Rad, Hercules, CA, USA).
The ability of the analogs to inhibit topoisomerase II activity was investigated by measuring decatenation of kinetoplast DNA (kDNA) by human topoisomerase IIα. Topoisomerase II has the ability to decatenate interlinked dsDNA minicircles.

[6] = system: HL-60 cells; experiment: BrdU incorporation (proliferation), flow cytometry; type: cell-based, human; conditions: 24 h, then BrdU 8 h
Protocol: as §1, §2
To examine the influences of the investigated compounds on HL-60 cell proliferation, cells were exposed to a thymidine analog, bromodeoxyuridine (BrdU), that incorporates into newly synthesized DNA during proliferation.

[7] = Homo sapiens, HL-60, 24 h, 24 h incubation, read-out: IC50 HL-60 after 24 h incubation
[8] = Homo sapiens, HL-60, 48 h, 48 h incubation, mean ± SEM, read-out: IC50 HL-60
[9] = compound at 2IC50 concentration

T1 sequence (P11388 whole entry): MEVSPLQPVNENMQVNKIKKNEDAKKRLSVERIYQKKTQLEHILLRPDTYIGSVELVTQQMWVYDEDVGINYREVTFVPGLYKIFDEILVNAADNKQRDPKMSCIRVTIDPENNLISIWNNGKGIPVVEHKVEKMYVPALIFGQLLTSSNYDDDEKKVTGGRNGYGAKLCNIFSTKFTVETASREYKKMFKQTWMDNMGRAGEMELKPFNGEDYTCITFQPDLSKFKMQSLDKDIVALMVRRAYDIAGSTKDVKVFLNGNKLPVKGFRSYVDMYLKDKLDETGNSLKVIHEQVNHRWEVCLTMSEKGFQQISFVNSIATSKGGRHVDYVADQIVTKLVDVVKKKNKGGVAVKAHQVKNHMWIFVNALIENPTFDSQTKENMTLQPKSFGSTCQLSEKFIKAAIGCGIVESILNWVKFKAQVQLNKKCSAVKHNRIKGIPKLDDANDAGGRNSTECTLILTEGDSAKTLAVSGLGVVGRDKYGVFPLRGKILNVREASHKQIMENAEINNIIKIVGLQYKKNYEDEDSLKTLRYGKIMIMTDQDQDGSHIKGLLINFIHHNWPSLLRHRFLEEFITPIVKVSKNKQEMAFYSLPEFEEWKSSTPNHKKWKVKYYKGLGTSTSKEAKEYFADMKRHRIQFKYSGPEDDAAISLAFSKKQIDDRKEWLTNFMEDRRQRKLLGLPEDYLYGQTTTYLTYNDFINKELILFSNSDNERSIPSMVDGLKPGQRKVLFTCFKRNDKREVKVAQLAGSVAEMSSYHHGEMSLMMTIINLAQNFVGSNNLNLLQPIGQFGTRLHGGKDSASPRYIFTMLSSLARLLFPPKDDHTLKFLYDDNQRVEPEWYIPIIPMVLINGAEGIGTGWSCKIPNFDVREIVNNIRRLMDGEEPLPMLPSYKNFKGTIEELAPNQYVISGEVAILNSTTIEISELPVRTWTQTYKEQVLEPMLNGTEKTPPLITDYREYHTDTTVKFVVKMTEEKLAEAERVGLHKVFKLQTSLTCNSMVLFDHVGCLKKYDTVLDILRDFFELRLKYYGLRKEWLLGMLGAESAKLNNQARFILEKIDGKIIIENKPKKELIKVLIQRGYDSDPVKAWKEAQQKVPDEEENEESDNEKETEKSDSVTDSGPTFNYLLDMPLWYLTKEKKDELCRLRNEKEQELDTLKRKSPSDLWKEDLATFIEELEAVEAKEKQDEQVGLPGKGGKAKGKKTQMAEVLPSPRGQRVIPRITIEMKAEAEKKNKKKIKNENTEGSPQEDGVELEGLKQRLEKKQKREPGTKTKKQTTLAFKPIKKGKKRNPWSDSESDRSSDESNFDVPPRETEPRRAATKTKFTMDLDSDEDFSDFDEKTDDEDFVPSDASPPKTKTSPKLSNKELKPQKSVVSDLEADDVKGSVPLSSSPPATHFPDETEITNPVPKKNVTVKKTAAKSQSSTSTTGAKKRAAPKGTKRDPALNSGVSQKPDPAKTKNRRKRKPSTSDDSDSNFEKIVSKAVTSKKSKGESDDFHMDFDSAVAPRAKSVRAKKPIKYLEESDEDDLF

| SMILES | population of cells with cleaved PARP [1] [%] | early apoptotic cells (Annexin V-positive and PI-negative) [2] [%] | late apoptotic cells (Annexin V-positive and PI-positive) [2] [%] | change in the number of apoptotic cells [2] | IC50 [3] [µM] | selectivity, inhibitory activity in HL-60 versus HUVEC cells (cancer/healthy cell IC50 ratio) ([4]; HL-60 compared to normal HUVEC cells, 48 h) | IC50 [4, 7] [µM] | IC50 [4, 8] [µM] | inhibition of topoisomerase II activity [5] | BrdU-incorporating cell population [6, 9] [%] | BrdU-incorporating cell population ([6]; compound at IC50 concentration) [%] | IC50 ([4]; 48 h incubation, mean ± SEM, read-out: IC50 HL-60) [µM] | inhibitory activity towards topoisomerase IIα compared with 13d ([5]; 0.5 and 1 mM) |
| --- | --- | --- | --- | --- | --- | --- | --- | --- | --- | --- | --- | --- | --- |
| C=C1C(=O)C[C@H](C(C)C)O[C@H]1C(C)C (relative stereo) [Analog 13d, Trans-2,6-diisopropyl-3-methylidenetetrahydro-4H-pyran-4-one] | 49.0 ± 1.61 | 13.0 ± 2.64 | 24.6 ± 2.34 | did not induce a significant change | 14 ± 1 | over 3 fold | 15.7 ± 0.61 | 7.65 ± 0.05 | inhibited topoisomerase II activity | 26.4 ± 6.9 | 31.5 ± 1.65 |  |  |
| C=C1C(=O)C[C@H](c2ccccc2)O[C@H]1C(C)C (relative stereo) [Analog 13g, Trans-2-isopropyl-3-methylidene-6-phenyltetrahydro-4H-pyran-4-one] | 13.5 ± 3.6 | 8.7 ± 0.57 | 39.5 ± 1.16 | not effective | 8.63 ± 0.07 |  | 6.49 ± 0.31 | < 4 | inhibited topoisomerase II activity | 31.9 ± 6.02 | 35.3 ± 1.23 | 3.69 ± 0.08 | stronger inhibitory activity |
